US20220062291A1, “COMPOSITIONS AND METHODS OF TREATING CANCERS BY ADMINISTERING A PHENOTHIAZINE-RELATED DRUG THAT ACTIVATES PROTEIN PHOSPHATASE 2A (PP2A) WITH REDUCED INHIBITORY ACTIVITY TARGETED TO THE DOPAMINE D2 RECEPTOR AND ACCOMPANYING TOXICITY” (DANA-FARBER CANCER INSTITUTE, INC., priority 2018, published 2022)
pIC50: −log10 of the molar value. Where two headings read alike, the source gives them in different places.

Key:
[1] = test system: KOPT-K1 cells; assay: Microtubule and chromatin staining of cytospins; format: cell-based, human; settings: 0.001 and 0.0001 μM, 24 hours
[2] = biological target: tubulin from porcine brain (Sus scrofa, UniProt P02550+P02554); assay: Fluorescence-based tubulin polymerization assay; settings: 3 μM
Procedure: Briefly, free tubulin (2 mg/mL) in buffer supplemented with 1 mM GTP and 15% glycerol was employed. Then, the test compounds were added to tubulin solution and changes in the fluorescence intensity (ex=370 nm, em=445 nm) were measured by kinetic reading at 37° C. using SpectraMax® M5 Microplate reader (Molecular Devices LLC).

[3] = biological target: T1, human dopamine receptor D2 (DRD2) (Homo sapiens, UniProt P14416); assay: Dopamine receptor D2 inhibition assay (SRE-luciferase reporter in HEK293T cells); format: cell-based; settings: for inhibition of DRD2 signaling: 10 μM for 3 hours
T1 construct: expressed in transfected cells; host or cells: HEK293T (pcDNA3 vectors)
Description: (§1) The human dopamine receptor D2 (DRD2) and modified murine Gq5i cDNAs were inserted into pcDNA3 expression vectors. After verifying the PCR products by DNA sequencing, DRD2, Gq5i and the PathDetect pSRE-Luc Cis-Reporter Plasmid (#219080, Agilent Technologies) were transfected to HEK293T cells. As previously reported, Gq5i enables Gi/o-coupled receptor activity to be detected using a serum response element (SRE)-luciferase reporter gene (See, Conklin et al., Nature 363(6426):274-6 (1993); Al-Fulaij et al., J. Pharmacol. Exp. Ther. 321(1):298-307 (2007)). These cells were starved in FCS-free DMEM medium for six hours before incubating them with 2 μM dopamine hydrochloride (Sigma Aldrich) together with each of the compound at 0, 0.5, 1, 2 and 4 μM for three hours. The reporter activity was measured using Pierce™ Firefly Luciferase Glow Assay Kit (Thermo Fisher Scientific).
(§2) For IC50 calculation, KOPT-K1 cells were treated with each of the compounds at various concentrations for 72 hours, followed by the determination of viable cell numbers with PrestoBlue® cell viability reagent. For the PP2A phosphatase activity assay, KOPT-K1 cells were treated with each of the compounds at 10 μM for 3 hours before phosphatase activity was measured. Dopamine D2 receptor activity was monitored in HEK293T cells coexpressing the dopamine D2 receptor, modified G protein and SRE luciferase reporter. Cells were treated with each of the compound at 10 μM for 3 hours, then lysed for the luciferase reporter assay.
as §1, with “D2” for “D2 (DRD2)”, “363(6426):274-276” for “363(6426):274-6”, “0.5” for “0, 0.5, 1, 2 and 4”

[4] = test system: PP2A subunits; assay: Co-immunoprecipitation of PP2A subunits (holoenzyme assembly); set-up: species or system human; settings: KOPT-K1 cells, 10 μM, 24 hours
Description: The biochemical activity of iPAP1 was further characterized by addressing whether it acts exclusively on the three identified subunits to mediate the assembly of PP2A, or whether other proteins expressed by T-ALL cells are also required. Using baculovirus vectors, each subunit of PP2A was first expressed with a C-terminal tag in Hi5 insect cells, and then purified the subunit proteins using columns with antibodies against the tags bound to agarose beads (see, Example 5, FIG. 13-FIG. 14). […] PP2A is a unique enzyme consisting of three subunits and it needs to be properly assembled into a holoenzyme before it mediates phosphatase activity. […] The protein lysates were then immunoprecipitated with anti-PPP2CA antibody or normal IgG as a control, and the precipitates were immunoblotted with antibodies specifically detecting each of the PP2A subunits. […] Nuclear and cytoplasmic fractions were separated using NE-PER™ Nuclear and Cytoplasmic Extraction Kit (Thermo Fisher Scientific), and each of the subunits of PP2A was analyzed by western blot. Histone H3 and α tubulin expression levels were used as loading controls for nuclear and cytoplasmic fractions, respectively. […] Lysates were immunoprecipitated using an anti-PPP2CA antibody, and then blotted with antibodies specific for each PP2A subunit. […] The results of a co-immunoprecipitation assay using an anti-PPP2CA antibody for immunoprecipitation in KOPT-K1 cells treated with SMAP at 10 μM or control DMSO for 24 hours before they were lysed for protein extraction are illustrated in FIG. 9B. Lysates were immunoprecipitated using an anti-PPP2CA antibody, and then blotted with antibodies specific for each PP2A subunit.

[5] = test system: KOPT-K1 cells; assay: KOPT-K1 cell viability (PrestoBlue), IC50 after 72 hours; format: cell-based, human; settings: for pIC50: 72 hours, PrestoBlue, read-out: IC50 value against KOPT-K1 cells
Procedure: as §2
(§3) For IC50 calculations, KOPT-K1 cells were treated with each of the compound at various concentrations for 72 hours, then their viability was examined by PrestoBlue® Cell Viability Reagent (Thermo Fisher Scientific). For PP2A phosphatase activity assay, KOPT-K1 cells were treated with each of the compound at 10 μM for three hours before the activity of PP2A was quantified using PP2A Immunoprecipitation Phosphatase Assay Kit (Merck Millipore®). DRD2 activity was monitored in HEK293T cells expressing DRD2, modified G protein and SRE luciferase reporter. Cells were treated with each of the compounds at 10 μM for three hours, then lysed for luciferase reporter assay. […] The biochemical assays were performed as indicated in Examples 7 and 8.

[6] = test system: PP2A; assay: PP2A phosphatase activity in treated KOPT-K1 cells; format: cell-based, human; settings: KOPT-K1 cells, 10 μM
Procedure: (§4) Data are presented as means±s.d. (n=3, biological replicates). KO; knock out. **P<0.01, ***P<0.001 by student's t-test.
as §2
as §3, with “For PP2A phosphatase activity assay, KOPT-K1 cells were treated with each of the compound at 10 μM for three hours before the activity of PP2A was quantified using PP2A Immunoprecipitation Phosphatase Assay Kit (Merck Millipore®).” left out

[7] = biological target: T2, PP2A (Homo sapiens, UniProt P30153+P67775+Q16537); assay: PP2A phosphatase activity in treated KOPT-K1 cells; format: cell-based; settings: KOPT-K1, 10 μM for 3 hours
T2 construct: are endogenously expressed by KOPTK1 cells; endogenous in cells; host or cells: KOPT-K1 T-ALL cells / lysates
Procedure: as §4, §2
as §3, with “For PP2A phosphatase activity assay, KOPT-K1 cells were treated with each of the compound at 10 μM for three hours before the activity of PP2A was quantified using PP2A Immunoprecipitation Phosphatase Assay Kit (Merck Millipore®).” left out

[8] = test system: KOPT-K1 cells; assay: Cell cycle status by PI flow cytometry; format: cell-based, human; settings: 10 μM and 20 μM, 24 hours
Procedure: Relative DNA content of cells in each of the samples was determined by measuring PI (propidium iodide) staining using flow cytometry. The results are illustrated in FIG. 31A-FIG. 31B.
Relative DNA content of cells in each of the samples was determined as described above.

[9] = test system: KOPT-K1 cells with PP2A subunit inactivation; assay: Drug sensitivity of KOPT-K1 sublines with CRISPR-Cas9 PP2A subunit knockout; format: cell-based, human; settings: SMAP 5 μM, 72 hours
Procedure: Two gRNAs with different target sequences were designed for each subunit (#1 and #2). Control gRNAs target luciferase gene. […] Data are presented as means±s.d. (n=3-5, biological replicates). ***P<0.001 by Student's t-test (FIG. 3A).
SMAP sensitivity in KOPT-K1 cells was measured after PP2A subunit inactivation. Only each subunit of PP2A was knocked out by CRISPR-Cas9 with unique gRNAs. […] Two gRNAs with different target sequences were designed for each subunit (#1 and #2). Control gRNAs target luciferase gene. Data are presented as means±s.d. (n=3-5, biological replicates). ***P<0.001 by Student's t-test (FIG. 3B).
To identify the subunits of PP2A that are essential for the antitumor activity of iPAP1, CRISPR-Cas9 was used to establish a series of sublines of KOPT-K1 T-ALL cells, each lacking one of the 19 specific PP2A subunits (FIG.1A-FIG. 2), and to examine their sensitivity to iPAP1-induced growth inhibition.
With this panel of PP2A subunit knockout cells in hand, we analyzed the PP2A subunits required for growth suppression by SMAPs, another class of allosteric activators of PP2A (Gutierrez et al., J. Clin. Invest. 124:644-655 (2014); Sangodkar et al., J. Clin. Invest. 127:2081-2090 (2017)). […] Both the PPP2R5E and PPP2R2A regulatory subunits of PP2A were among the most highly expressed in a series of 16 different T-ALL cell lines (FIG. 5A). Thus, the assembly of structurally different heterotrimeric PP2A complexes induced with either iPAP1 or SMAP cannot be attributed to imbalances in cellular expression levels of individual PP2A subunits, but likely stems from differences in the allosteric alterations of the A subunit protein resulting from the binding of these two classes of small molecules, which have different chemical structures.

[10] = 0.5 μM for three hours with 2 μM dopamine

T1 sequence (P14416 whole entry): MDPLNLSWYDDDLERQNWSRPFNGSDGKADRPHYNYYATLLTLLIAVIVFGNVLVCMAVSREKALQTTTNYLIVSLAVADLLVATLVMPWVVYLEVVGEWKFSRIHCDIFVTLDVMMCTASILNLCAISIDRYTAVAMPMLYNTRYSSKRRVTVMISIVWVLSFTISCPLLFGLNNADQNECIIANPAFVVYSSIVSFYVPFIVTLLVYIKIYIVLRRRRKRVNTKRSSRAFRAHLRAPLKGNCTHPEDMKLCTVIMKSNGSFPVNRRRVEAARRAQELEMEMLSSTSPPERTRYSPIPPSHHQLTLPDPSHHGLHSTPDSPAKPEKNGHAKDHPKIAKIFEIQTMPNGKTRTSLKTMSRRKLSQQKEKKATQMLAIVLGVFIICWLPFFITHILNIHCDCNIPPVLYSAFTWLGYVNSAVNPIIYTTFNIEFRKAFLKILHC
T2 sequence (P30153 2-589): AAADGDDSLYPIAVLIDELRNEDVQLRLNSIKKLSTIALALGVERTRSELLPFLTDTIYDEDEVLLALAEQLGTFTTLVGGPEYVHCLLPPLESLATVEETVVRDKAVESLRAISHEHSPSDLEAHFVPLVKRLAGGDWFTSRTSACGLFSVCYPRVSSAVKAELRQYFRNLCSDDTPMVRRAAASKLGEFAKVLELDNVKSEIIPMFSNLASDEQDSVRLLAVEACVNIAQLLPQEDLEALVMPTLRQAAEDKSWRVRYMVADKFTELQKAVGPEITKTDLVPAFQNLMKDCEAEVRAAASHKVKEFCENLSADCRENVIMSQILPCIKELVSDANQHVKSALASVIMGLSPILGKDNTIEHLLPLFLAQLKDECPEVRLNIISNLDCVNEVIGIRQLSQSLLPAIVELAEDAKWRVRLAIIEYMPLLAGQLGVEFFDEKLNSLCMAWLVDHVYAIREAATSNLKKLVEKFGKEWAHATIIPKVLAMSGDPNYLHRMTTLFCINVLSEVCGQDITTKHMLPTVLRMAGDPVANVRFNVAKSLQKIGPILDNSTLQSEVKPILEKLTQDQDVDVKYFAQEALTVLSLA
T2 sequence (P67775 whole entry): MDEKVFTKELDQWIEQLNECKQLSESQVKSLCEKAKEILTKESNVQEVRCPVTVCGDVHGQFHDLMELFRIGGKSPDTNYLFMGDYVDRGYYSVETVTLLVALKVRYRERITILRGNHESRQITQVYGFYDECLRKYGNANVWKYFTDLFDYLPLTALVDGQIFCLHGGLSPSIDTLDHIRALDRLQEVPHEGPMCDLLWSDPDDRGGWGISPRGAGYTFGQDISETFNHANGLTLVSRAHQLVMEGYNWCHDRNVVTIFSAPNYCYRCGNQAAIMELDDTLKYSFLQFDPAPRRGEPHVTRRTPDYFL
T2 sequence (Q16537 2-467): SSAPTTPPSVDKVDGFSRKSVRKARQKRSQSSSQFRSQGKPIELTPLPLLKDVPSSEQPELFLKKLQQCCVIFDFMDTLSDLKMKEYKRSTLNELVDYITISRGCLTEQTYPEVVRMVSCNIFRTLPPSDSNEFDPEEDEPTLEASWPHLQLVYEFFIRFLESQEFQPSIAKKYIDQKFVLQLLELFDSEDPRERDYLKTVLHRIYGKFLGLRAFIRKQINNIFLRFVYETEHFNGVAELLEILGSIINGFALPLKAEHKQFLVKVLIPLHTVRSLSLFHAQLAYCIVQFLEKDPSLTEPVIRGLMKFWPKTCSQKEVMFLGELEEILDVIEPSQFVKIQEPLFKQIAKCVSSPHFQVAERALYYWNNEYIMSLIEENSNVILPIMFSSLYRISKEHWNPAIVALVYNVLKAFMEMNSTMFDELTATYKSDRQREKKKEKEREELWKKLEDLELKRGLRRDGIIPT
tubulin from porcine brain, sequence (P02550 whole entry): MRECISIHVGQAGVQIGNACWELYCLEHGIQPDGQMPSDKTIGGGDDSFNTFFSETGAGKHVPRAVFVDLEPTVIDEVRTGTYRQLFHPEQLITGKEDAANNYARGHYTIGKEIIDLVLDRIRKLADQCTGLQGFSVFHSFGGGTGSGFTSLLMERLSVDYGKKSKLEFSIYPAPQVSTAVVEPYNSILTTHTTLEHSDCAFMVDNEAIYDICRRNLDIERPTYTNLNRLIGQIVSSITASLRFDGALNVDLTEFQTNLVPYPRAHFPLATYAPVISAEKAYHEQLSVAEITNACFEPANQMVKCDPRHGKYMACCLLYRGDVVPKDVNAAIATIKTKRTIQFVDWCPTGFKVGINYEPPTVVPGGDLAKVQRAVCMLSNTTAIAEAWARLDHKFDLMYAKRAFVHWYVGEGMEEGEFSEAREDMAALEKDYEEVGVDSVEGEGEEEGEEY
tubulin from porcine brain, sequence (P02554 whole entry): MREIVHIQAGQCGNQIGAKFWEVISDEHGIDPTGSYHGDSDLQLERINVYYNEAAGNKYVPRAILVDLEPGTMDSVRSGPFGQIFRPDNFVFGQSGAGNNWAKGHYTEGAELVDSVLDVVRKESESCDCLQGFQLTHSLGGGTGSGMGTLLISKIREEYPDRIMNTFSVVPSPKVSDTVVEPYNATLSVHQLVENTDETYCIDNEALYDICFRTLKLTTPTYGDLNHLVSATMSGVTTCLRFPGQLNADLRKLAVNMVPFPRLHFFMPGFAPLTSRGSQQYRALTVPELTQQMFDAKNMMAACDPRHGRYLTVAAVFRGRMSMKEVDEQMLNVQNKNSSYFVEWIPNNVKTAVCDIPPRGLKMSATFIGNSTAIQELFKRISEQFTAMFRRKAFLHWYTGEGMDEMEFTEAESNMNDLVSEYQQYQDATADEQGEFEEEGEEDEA

SMILES: CC[C@]1(O)C[C@H]2CN(CCc3c([nH]c4ccccc34)[C@@](C(=O)OC)(c3cc4c(cc3OC)N(C=O)[C@H]3[C@@](O)(C(=O)OC)[C@H](OC(C)=O)[C@]5(CC)C=CCN6CC[C@]43[C@@H]65)C2)C1 [vincristine, reference compound]
- mitotic and microtubule phenotype [1]: without detectable microtubules
- inhibition of tubulin polymerization [2]: markedly inhibited tubulin polymerization

SMILES: C=C[C@@]1(C)CC(=O)[C@]2(O)[C@@]3(C)[C@@H](O)CCC(C)(C)[C@@H]3[C@H](O)[C@H](OC(C)=O)[C@@]2(C)O1 [forskolin, reference compound]
- inhibition at 0.5 µM ([3]; HEK-293T, 0.5 μM for three hours with 2 μM dopamine): ~30%

SMILES: CCN1CCCC1CNC(=O)c1cc(S(N)(=O)=O)ccc1OC (stereo not shown) [sulpiride, reference compound]
- inhibition of DRD2 signaling [3]: strong inhibitors

SMILES: Cc1ccccc1C(=O)N1c2ccccc2Sc2ccc(Cl)cc21 [iPAP5]
- inhibitory activities on DRD2 [3, 10]: did not show inhibitory activities on DRD2

SMILES: O=S(=O)(N[C@@H]1CCC[C@H](N2c3ccccc3Oc3ccccc32)[C@H]1O)c1ccc(OC(F)(F)F)cc1 [SMAP, reference compound]
- PP2A subunits co-immunoprecipitated with anti-PPP2CA antibody [4]: trimeric complex nucleated by SMAP contains PPP2CA, PPP2R1A and PPP2R2A
- inhibitory activities on DRD2 [3, 10]: did not show inhibitory activities on DRD2
- inhibition of DRD2 signaling [3]: lacked DRD2 inhibitory activity
- pIC50 [5]: ~5.30
- phosphatase activity of PP2A relative to basal level [6]: up to twice its basal level
- PP2A activation potential [7]: much less potent than iPAP1, iPAP2, iPAP3 or iPAP4 in phosphatase activity
- cell cycle status [8]: arrested in G0/G1 phase
- PP2A subunits whose knockout gives resistance [9]: resistant to SMAP treatment only when the PPP2R1A, PPP2CA or PPP2R2A subunit was disrupted

SMILES: COc1ccc(C(=O)N2c3ccccc3Sc3ccc([N+](=O)[O-])cc32)cc1 [iPAP2]
- pIC50 ([5]; Homo sapiens, KOPTK1, 72 h): ~6.00

SMILES: COc1ccc(C(=O)N2c3ccccc3Sc3cc(C#N)ccc32)cc1 [iPAP4]
- inhibition of DRD2 signaling [3]: very low inhibition of DRD2 signaling
- pIC50 [5]: 7.40 to 7.52
- pIC50 ([5]; Homo sapiens, KOPTK1, 72 h): ~7.52
- IC50 lower than PPZ ([5]; KOPT-K1, 72 hours): ~100 fold
- IC50 lower than iPAP1 ([5]; KOPT-K1, 72 hours): ~10 fold
- PP2A activation potential [7]: relatively high PP2A activation potential compared to PPZ

SMILES: COc1ccc(C(=O)N2c3ccccc3Sc3ccc(C#N)cc32)cc1 [iPAP3]
- pIC50 ([5]; Homo sapiens, KOPTK1, 72 h): ~6.52

SMILES: O=c1[nH]c2ccccc2n1CCCN1CCC(n2c(=O)[nH]c3cc(Cl)ccc32)CC1 [domperidone, reference compound]
- inhibition of DRD2 signaling [3]: strong inhibitors
